Measured values reported in patent publication US4794124A, “Therapeutic composition for diabetic complications” (priority 1985, dated 1988).

Tests used:
diabetic rats [1] = experiment: Blood glucose in streptozotocin-induced diabetic rats; format: in vivo, male SD rats; settings: cysteine 400 mg/kg/day oral, n = 8-10, normal 220 ± 20
Protocol: (§1) The effects of oral administration of cysteine in diabetic rats were investigated.
(§2) A second group received tap water similarly.
(§3) Blood glucose was determined 2 days and 11 weeks after administration of streptozotocin to confirm that the rats were in hyperglycemic condition. Further, body weight was determined periodically during the study period. After 11 weeks, the blood was withdrawn from the abdominal aorta for clinical serum chemical examination. Moreover, to monitor the cataract supervening in diabetes, the rat crystalline lens was periodically examined using a slit lamp.

[2] = Time course of body weight in streptozotocin-induced diabetic rats; format: in vivo, male SD rats; settings: long-term repeated administration, 400 mg/kg/day oral
Protocol: as §1, §2, §3

diabetic rats [3] = experiment: Clinical serum chemistry values at week 11 in streptozotocin-induced diabetic rats; format: in vivo, male SD rats; settings: 400 mg/kg/day oral
Protocol: as §1, §2, §3

rat crystalline lens = experiment: Progression of cataract in streptozotocin-induced diabetic rats (slit lamp, 7 stages); format: in vivo, male SD rats; settings: 400 mg/kg/day oral
Protocol: as §2, §3
The progression of cataract was evaluated on the scale of the following 7 stages up to mature cataract.
0: No lens opacity at all
I: Slight opacity of the lens epithelium or small vacuoles in the equatorial region.
II: Vacuoles multiplying and merging to spread into the cortex.
III: The vacuoles pervading most of the cortex have begun to disappear.
IV: The majority of vacuoles have disappeared and the whole cortex is translucent.
V: Opacity of the lens nucleus.
VI: Opacity of the whole lens (mature cataract)
Then, cataract which is a diabetic complication ready to develop in such diabetic animal models was studied by monitoring the rats for 11 weeks.
The bar graphs in FIG. 1(a) through (f) show the time course of cataract stages. […]

lens sorbitol = experiment: Sorbitol content of the lens in streptozotocin-induced diabetic rats; settings: for Sorbitol content of the lens: n = 4-5
Protocol: Using male SD rats weighing about 100 g, experimental diabetes was induced by injecting 70 mg/kg of streptozotocin into the caudal vein.
The rats were divided into 2 groups of 10 individuals. A first group of rats were given a 10% aqueous solution of cysteine in a volume of 0.2 ml/100 g body weight twice daily (cysteine 400 mg/kg/day) by gastric gavage beginning the day before administration of streptozotocin. This group is referred to as the cysteine-treated group. A second group received tap water similarly. This group is referred to as the control group.

SMILES: N[C@@H](CS)C(=O)O [cysteine]
- Blood glucose (diabetic rats [1]; after 11 weeks, control 721 ± 75): 767 ± 77 mg/dL
- Blood glucose (diabetic rats [1]; after 2 days, control 521 ± 78): 559 ± 99 mg/dL
- Effect on body weight gain in diabetic rats [2]: did not affect the body weight gain
- Serum chemical parameters (overall) (diabetic rats [3]): close to the normal values
- Total bilirubin (diabetic rats [3]; n = 8-10, normal 0.2 ± 0.0, control 0.43 ± 0.23): 0.28 ± 0.18 mg/dL
- Uric acid (diabetic rats [3]; n = 8-10, normal 1.8 ± 0.4, control 2.5 ± 2.5): 1.5 ± 0.5 mg/dL
- γ-GTP (diabetic rats [3]; n = 8-10, normal 2.4 ± 2.0, control 42.9 ± 31.3): 13.4 ± 7.2 U/L
- Lipid peroxide (diabetic rats [3]; n = 8-10, normal 3.95 ± 0.53, control 5.40 ± 0.68): 4.48 ± 0.56 nmol/dL
- ALP (diabetic rats [3]; n = 8-10, normal 48 ± 8, control 83 ± 25): 68 ± 26 KAU
- Total cholesterol (diabetic rats [3]; n = 8-10, normal 51 ± 6, control 175 ± 76): 118 ± 57 mg/dL
- GPT (diabetic rats [3]; n = 8-10, normal 61 ± 27, control 450 ± 320): 311 ± 184 U/L
- Neutral lipid (diabetic rats [3]; n = 8-10, normal 90 ± 25, control 1437 ± 858): 645 ± 605 mg/dL
- GOT (diabetic rats [3]; n = 8-10, normal 102 ± 42, control 952 ± 1038): 495 ± 358 U/L
- β-lipoprotein (diabetic rats [3]; n = 8-10, normal 112 ± 13, control 493 ± 233): 299 ± 173 mg/dL
- LAP (diabetic rats [3]; n = 8-10, normal 199 ± 15, control 297 ± 78): 234 ± 66 GRU
- TTT (diabetic rats [3]; thymol turbidity test, n = 8-10, normal 0.15 ± 0.05, control 3.94 ± 3.88): 1.03 ± 0.90 U
- ZST (diabetic rats [3]; zinc sulfate test, n = 8-10, normal 1.2 ± 0.1, control 6.2 ± 4.8): 2.6 ± 1.3 U
- Progress of cataract compared with the control group (rat crystalline lens; any observation period (2, 4, 6, 8, 10, 11 weeks), FIG. 1): the progress of cataract was inhibited
- Effect on progression of cataract (cumulative variance analysis) (rat crystalline lens; p<0.0001 vs control): significant retarding effect on the progression of cataract
- Accumulation of sorbitol in the lens, cysteine-treated vs control group (lens sorbitol; 2 and 3 weeks after streptozotocin): no significant difference
- Sorbitol content of the lens (lens sorbitol; after 2 weeks, control 0.996 ± 0.286): 1.056 ± 0.166 μmole/lens
- Sorbitol content of the lens (lens sorbitol; after 3 weeks, control 1.186 ± 0.164): 1.025 ± 0.031 μmole/lens
